# Reference: patent US4639466A, “3',6-diisopentenyl-2',4'-dihydroxy-5,7-dimethoxy-isoflavan and related compounds useful as anxiolytic agents and avermectin antidotes” (Merck & Co., Inc., priority 1984, dated 1987)
# Read-outs that look alike come from different tables or passages of the source.
# Experiments:
# C. elegans = C. elegans motility assay (effect on avermectin activity, % active worms); format: in vivo
# From the text: 1. The C. elegans motility assay:
# The procedures for the C. elegans motility assay is described in S. S. Pong et al., J. NuroChem. 34, 351-358, 1980.
# benzodiazepine receptors [1] = test: Benzodiazepine receptor binding assay (BARIN; effect on ^3 H-diazepam binding)
# benzodiazepine receptors [2] = conditions: known from prior art; cited from earlier work
compound,measurement,setting,value
"COc1cc2c(c(OC)c1CC=C(C)C)CC(c1ccc(O)c(CC=C(C)C)c1O)CO2 (centres unmarked) [3',6-diisopentenyl-2',4'-dihydroxy-5,7-dimethoxyisoflavan]",antagonism of avermectin in the C. elegans motility assay,C. elegans; in vivo,potent antagonist of avermectin
same,% active worms,"C. elegans; isoflavan 5 μg/ml, avermectin 0 μg/ml",97%
same,% active worms,"C. elegans; isoflavan 5 μg/ml, avermectin 0.156 μg/ml",60%
same,% active worms,"C. elegans; isoflavan 5 μg/ml, avermectin 0.313 μg/ml",60%
same,% active worms,"C. elegans; isoflavan 5 μg/ml, avermectin 0.625 μg/ml",77%
same,% active worms,"C. elegans; isoflavan 25 μg/ml, avermectin 0 μg/ml",95%
same,% active worms,"C. elegans; isoflavan 25 μg/ml, avermectin 0.156 μg/ml",88%
same,% active worms,"C. elegans; isoflavan 25 μg/ml, avermectin 0.313 μg/ml",65%
same,% active worms,"C. elegans; isoflavan 25 μg/ml, avermectin 0.625 μg/ml",91%
same,blocking the highest dose of avermectin,"C. elegans; lowest dose level 5 μg/ml, avermectin 0.625 μg/ml",almost fully effective
same,effect on benzodiazepine binding,benzodiazepine receptors [1],stimulate the benzodiazepine-binding
same,EC50,"benzodiazepine receptors [1]; active compound (12 mg, k'=8) isolated from CH2 Cl2 extract of G. uralensis by HPLC",2 to 3 µg/mL
same,EC50 for stimulation of benzodiazepine-binding,benzodiazepine receptors [1]; stimulation of binding,3 µg/mL
CC[C@H](C)[C@H]1O[C@]2(C=C[C@@H]1C)C[C@@H]1C[C@@H](C/C=C(\C)[C@@H](O[C@H]3C[C@H](OC)[C@@H](O[C@H]4C[C@H](OC)[C@@H](O)[C@H](C)O4)[C@H](C)O3)[C@@H](C)/C=C/C=C3\CO[C@@H]4[C@H](O)C(C)=C[C@@H](C(=O)O1)[C@]34O)O2 [avermectin],% active worms,"C. elegans; isoflavan 0 μg/ml, avermectin 0.156 μg/ml (avermectin alone)",85%
same,% active worms,"C. elegans; isoflavan 0 μg/ml, avermectin 0.313 μg/ml (avermectin alone)",20%
same,% active worms,"C. elegans; isoflavan 0 μg/ml, avermectin 0.625 μg/ml (avermectin alone)",4%
CCCCNc1c(C(=O)OCC)c(C)nc2c1cnn2CC [tracazolate],effect on benzodiazepine binding,benzodiazepine receptors [2],stimulates benzodiazepine binding
